Reference: US20080234284A1, “Pyrazolo[1,5-a]Pyrimidin-7-Yl Amine Derivatives as Protein Kinase Inhibitors” (priority 2005, published 2008)

Columns and labels:
human EphB4 receptor = target: T1, human EphB4 receptor (Homo sapiens, UniProt P54760); test: EphB4 kinase assay on recombinant Ephrin B4 receptor domains (33P filter assay); type: biochemical
T1 construct: made in house; host or cells: Sf9 or Sf21 insect cells (baculovirus)
T1 sequence (P54760 566-987): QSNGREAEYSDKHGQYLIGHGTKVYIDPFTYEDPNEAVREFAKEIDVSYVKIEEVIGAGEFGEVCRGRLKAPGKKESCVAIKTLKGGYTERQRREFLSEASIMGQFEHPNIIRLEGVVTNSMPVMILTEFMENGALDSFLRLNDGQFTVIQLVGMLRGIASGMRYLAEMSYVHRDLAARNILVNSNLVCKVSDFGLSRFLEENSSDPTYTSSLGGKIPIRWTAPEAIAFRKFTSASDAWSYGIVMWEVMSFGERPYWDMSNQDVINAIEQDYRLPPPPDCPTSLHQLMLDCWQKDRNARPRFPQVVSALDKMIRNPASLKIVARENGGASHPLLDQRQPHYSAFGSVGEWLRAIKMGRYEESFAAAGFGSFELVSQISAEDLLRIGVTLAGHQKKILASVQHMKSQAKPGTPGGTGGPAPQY
From the text: Recombinant baculovirus are generated that express the amino acid region 566-987 of the human EphB4 receptor (SwissProt Database, Accession No. P54760). GST sequence is cloned into pFastBac1® vector (Invitrogen Life Technologies, Basel, Switzerland) and PCR amplified. cDNAs encoding EphB4-receptor domains, respectively are cloned in frame 3′prime to the GST sequence into this modified FastBac1 vector to generate pBac-to-Bac™ donor vectors. Single colonies arising from the transformation are inoculated to give overnight cultures for small scale plasmid preparation. […] By automated sequencing the inserts and approximately 50 bp of the flanking vector sequences are confirmed on both strands.
Production of viruses: Viruses for each of the kinases are made according to the protocol supplied by GIBCO if not stated otherwise. In brief, transfer vectors containing the kinase domains are transfected into the DH10Bac cell line (GIBCO) and plated on selective agar plates. […]
Purification of GST-tagged kinases: The centrifuged cell lysate is loaded onto a 2 mL glutathione-sepharose column (Pharmacia) and washed three times with 10 mL of 25 mM Tris-HCl, pH 7.5, 2 mM EDTA, 1 mM DTT, 200 mM NaCl. […] Membranes are counted after drying at ambient temperature, mounting in Packard TopCount96-well frame, and addition of 10 μL/well of Microscint™ (Packard). […]

human EphB4 = target: T2, human EphB4 (Homo sapiens, UniProt P54760); test: EphB4 receptor autophosphorylation sandwich ELISA in transfected A375 human melanoma cells; type: cell-based; details: EphB4 receptor auto-phosphorylation in vitro on cells
T2 construct: expressed in transfected cells; host or cells: A375 human melanoma cells (ATCC CRL-1619)
T2 sequence (P54760 16-987): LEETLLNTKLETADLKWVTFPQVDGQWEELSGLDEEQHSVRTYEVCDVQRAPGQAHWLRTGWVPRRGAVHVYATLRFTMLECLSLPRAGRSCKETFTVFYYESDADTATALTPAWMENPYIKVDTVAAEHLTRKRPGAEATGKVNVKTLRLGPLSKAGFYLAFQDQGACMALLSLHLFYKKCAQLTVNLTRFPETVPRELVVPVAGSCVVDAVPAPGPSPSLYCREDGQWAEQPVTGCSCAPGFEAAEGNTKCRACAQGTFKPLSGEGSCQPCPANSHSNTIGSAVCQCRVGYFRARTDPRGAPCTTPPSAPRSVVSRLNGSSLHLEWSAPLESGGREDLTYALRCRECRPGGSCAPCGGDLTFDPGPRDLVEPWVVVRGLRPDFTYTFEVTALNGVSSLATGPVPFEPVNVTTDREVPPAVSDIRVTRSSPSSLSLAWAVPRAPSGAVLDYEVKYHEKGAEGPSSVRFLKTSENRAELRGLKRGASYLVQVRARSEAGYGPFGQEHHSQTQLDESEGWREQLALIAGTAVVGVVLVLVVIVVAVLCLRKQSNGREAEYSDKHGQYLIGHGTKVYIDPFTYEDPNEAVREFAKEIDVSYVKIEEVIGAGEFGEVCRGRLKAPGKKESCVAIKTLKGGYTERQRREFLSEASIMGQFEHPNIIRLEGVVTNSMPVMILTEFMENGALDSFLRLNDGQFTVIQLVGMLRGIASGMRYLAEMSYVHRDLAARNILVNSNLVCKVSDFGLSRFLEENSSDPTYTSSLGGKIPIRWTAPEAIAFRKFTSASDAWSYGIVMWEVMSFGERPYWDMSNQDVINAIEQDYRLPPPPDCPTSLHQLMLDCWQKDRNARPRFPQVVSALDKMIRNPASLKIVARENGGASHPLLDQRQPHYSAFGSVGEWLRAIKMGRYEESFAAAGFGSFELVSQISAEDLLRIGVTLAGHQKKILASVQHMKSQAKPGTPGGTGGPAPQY
Method: Alternatively, EphB4 receptor autophosphorylation can be measured as follows: The inhibition of EphB4 receptor autophosphorylation can be confirmed with an in vitro experiment in cells such as transfected A375 human melanoma cells (ATCC Number: CRL-1619), which permanently express human EphB4 (SwissProt AccNo P54760), are seeded in complete culture medium (with 10% fetal calf serum ═FCS) in 6-well cell-culture plates and incubated at 37° C. under 5% CO2 until they show about 90% confluency. The compounds to be tested are then diluted in culture medium (without FCS, with 0.1% bovine serum albumin) and added to the cells. (Controls comprise medium without test compounds). Ligand induced autophosphorylation is induced by the addition of 1 microg/ml soluble ephrinB2-Fc (s-ephrinB2-Fc: R&D Biosystems, CatNr 496-EB) and 0.1 microM ortho-vanadate. After a further 20 minutes incubation at 37° C., the cells are washed twice with ice-cold PBS (phosphate-buffered saline) and immediately lysed in 200 μl lysis buffer per well. The lysates are then centrifuged to remove the cell nuclei, and the protein concentrations of the supernatants are determined using a commercial protein assay (PIERCE). The lysates can then either be immediately used or, if necessary, stored at −20° C. […]

c-Abl kinase = target: T3, c-Abl kinase (Homo sapiens, UniProt P00519); test: c-Abl protein-tyrosine kinase filter binding assay; type: biochemical
T3 construct: The His-tagged kinase domain of c-Abl is cloned and expressed in the baculovirus/Sf9 system; His; made in house; host or cells: Sf9 insect cells (baculovirus)
T3 sequence (P00519 242-493 limits assumed): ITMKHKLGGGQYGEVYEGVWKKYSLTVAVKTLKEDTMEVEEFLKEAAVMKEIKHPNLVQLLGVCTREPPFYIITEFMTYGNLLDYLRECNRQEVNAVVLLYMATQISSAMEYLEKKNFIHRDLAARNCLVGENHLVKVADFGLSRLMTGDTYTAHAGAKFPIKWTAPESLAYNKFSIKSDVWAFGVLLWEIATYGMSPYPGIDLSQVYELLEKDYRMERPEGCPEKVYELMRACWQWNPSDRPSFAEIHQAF
Method: The His-tagged kinase domain of c-Abl is cloned and expressed in the baculovirus/Sf9 system as described by Bhat et al. in J. Biol. Chem. 1997; 272:16170-16175. A protein of 37 kD (c-Abl kinase) is purified by a two-step procedure over a Cobalt metal chelate column followed by an anion exchange column with a yield of 1-2 mg/L of Sf9 cells (Bhat et al., reference cited). The purity of the c-Abl kinase is >90% as judged by SDS-PAGE after Coomassie blue stai-ning. The assay contains (total volume of 30 μL): c-Abl kinase (50 ng), 20 mM Tris.HCl, pH 7.5, 10 mM MgCl2, 10 μM Na3VO4, 1 mM DTT and 0.06 μCi/assay [γ33 P]-ATP (5 μM ATP) using 30 μg/mL poly-Ala, Glu, Lys, Tyr-6:2:5:1 (Poly-AEKY, Sigma P1152) in the presence of 1% DMSO. Reactions are terminated by adding 10 μL of 250 mM EDTA and 30 μL of the reaction mixture is transferred onto Immobilon-PVDF membrane (Millipore, Bedford, Mass., USA) previously soaked for 5 min with methanol, rinsed with water, then soaked for 5 min with 0.5% H3PO4 and mounted on vacuum manifold with disconnected vacuum source. After spotting all samples, vacuum is connected and each well rinsed with 200 μL 0.5% H3PO4. […] Membranes are counted after drying at ambient temperature, mounting in Packard TopCount 96-well frame, and addition of 10 μL/well of Microscint™ (Packard).

EphB4 IC50 (human EphB4 receptor) [nM]	EphB4 ELISA - IC50 (human EphB4) [nM]	c-Abl IC50 (c-Abl kinase) [nM]	SMILES
1 to 1000	1 to 1000	1 to 1000	COc1ccc(-c2cnn3c(N)c(-c4cccc(Cl)c4)c(CN4CCNCC4)nc23)cc1OC [Example 1, 6-(3-Chloro-phenyl)-3-(3,4-dimethoxy-phenyl)-5-piperazin-1-ylmethyl-pyrazolo[1,5-a]pyrimidin-7-ylamine]
1 to 1000	1 to 1000	1 to 1000	COc1ccc(-c2cnn3c(N)c(-c4ccc(F)cc4)c(CN4CCNCC4)nc23)cc1OC [Example 2, 3-(3,4-Dimethoxy-phenyl)-6-(4-fluoro-phenyl)-5-piperazin-1-ylmethyl-pyrazolo[1,5-a]pyrimidin-7-ylamine]
